Assay results: patent US20250034122A1, “SUBSTITUTED N-CYANOPYRROLIDINES WITH ACTIVITY AS USP30 INHIBITORS” (MISSION THERAPEUTICS LIMITED, priority 2021, published 2025)

Columns and labels:
[1] = tested on: TOM20 ubiquitylation; assay: TOM20-ubiquitylation assay (western blot of cell lysates); assay type: cell-based, Human; details: antimycin A/oligomycin mitophagy trigger, concentration for 1.5-fold gain of TOM20-Ub
Source text: TOM20-Ubiquitylation Assay Human cell lines can be challenged with mitochondrial depolarizing agents (ionophores (eg. CCCP, valinomycin), mitochondrial complex inhibitors (oligomycin, antimycin A)) to induce ubiquitylation of TOM20, which is then further promoted in the presence of USP30 inhibitors. TOM20 ubiquitylation is subsequently assessed through western blotting of the cell lysates, with TOM20 ubiquitylation adduct detection possible due to an 8 kDa molecule weight increase for each molecule of ubiquitin added, resulting in laddering of a TOM20 immunoreactive band. TOM20-ubiquitylation levels can be quantified using chemiluminescence densitometry of laddered immunoreactive bands.

[2] = target: USP30 (Homo sapiens (Human), UniProt Q70CQ3); assay: USP30 biochemical IC50 assay (fluorescence polarisation); details: geomean; USP30 4 nM, 30 min pre-incubation, TAMRA-peptide-ubiquitin FP substrate
Sequence of USP30 (Q70CQ3 57-517): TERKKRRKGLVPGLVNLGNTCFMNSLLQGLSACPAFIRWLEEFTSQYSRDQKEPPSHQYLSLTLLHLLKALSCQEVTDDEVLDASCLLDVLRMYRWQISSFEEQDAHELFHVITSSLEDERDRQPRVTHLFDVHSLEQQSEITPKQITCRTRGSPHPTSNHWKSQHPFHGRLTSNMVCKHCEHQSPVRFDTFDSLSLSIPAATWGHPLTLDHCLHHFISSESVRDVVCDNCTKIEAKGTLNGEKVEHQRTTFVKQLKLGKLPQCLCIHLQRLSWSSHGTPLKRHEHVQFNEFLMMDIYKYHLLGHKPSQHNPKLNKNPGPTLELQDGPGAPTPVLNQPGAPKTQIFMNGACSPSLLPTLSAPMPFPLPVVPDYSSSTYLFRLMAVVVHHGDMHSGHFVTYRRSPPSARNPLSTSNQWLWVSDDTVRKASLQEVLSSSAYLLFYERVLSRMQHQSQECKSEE
Experimental: Dilution plates were prepared at 21 times the final concentration (2100 μM for a final concentration of 100 μM) in 50% DMSO in a 96-well polypropylene V-bottom plate (Greiner #651201). A typical 8-point dilution series would be 100, 30, 10, 3, 1, 0.3, 0.1, 0.03 μM final. Reactions were performed in duplicate in black 384 well plates (small volume, Greiner 784076) in a final reaction volume of 21 μl.
Either lpl of 50% DMSO or diluted compound was added to the plate. USP30 (Boston Biochem #E582) was diluted in reaction buffer (40 mM Tris, pH 7.5, 0.005% Tween 20, 0.5 mg/ml BSA, 5 mM beta-mercaptoethanol) to achieve a final assay concentration of 4 nM, and 10 μl of diluted USP30 was added to the compound. Enzyme and compound were incubated for 30 min at room temp. Reactions were initiated by the addition of 50 nM of TAMRA labelled peptide linked to ubiquitin via an isopeptide bond as fluorescence polarisation substrate. Reactions were read immediately after addition of substrate and following a 2-hour incubation at room temperature. Readings were performed on a Pherastar Plus (BMG Labtech). λ Excitation 540 nm; λ Emission 590 nm.

Structure (SMILES)	EC1.5x (Geomean, nM); TOM20-Ub 1.5-fold gain [1]	IC50 [2]
N#CN1C[C@H](NC(=O)c2ncc(-c3cccc(Cl)c3)o2)C[C@H]1Cn1ccnn1 [Example 5, N-((3R,5S)-5-((1H-1,2,3-Triazol-1-yl)methyl)-1-cyanopyrrolidin-3-yl)-5-(3-chlorophenyl)oxazole-2-carboxamide]	9 nM	4 nM
N#CN1C[C@H](NC(=O)c2ncc(-c3cccc(C(F)(F)F)c3)o2)C[C@H]1Cn1cccn1 [Example 30, N-((3R,5S)-5-((1H-Pyrazol-1-yl)methyl)-1-cyanopyrrolidin-3-yl)(3(trifluoromethyl)phenyl)oxazole-2-carboxamide]	14 nM	11 nM
N#Cc1ccc(C2CC2)c(-c2cnc(C(=O)N(C3CC3)[C@@H]3C[C@@H](Cn4ccnn4)N(C#N)C3)o2)c1 [Example 1, N-((3R,5S)-5-((1H-1,2,3-Triazol-1-yl)methyl)-1-cyanopyrrolidin-3-yl)-5-(5-cyano-2-cyclopropylphenyl)-N-cyclopropyloxazole-2-carboxamide]	17 nM	5 nM
N#Cc1cccc(-c2cnc(C(=O)N[C@@H]3C[C@@H](Cn4cncn4)N(C#N)C3)o2)c1 [Example 18, N-((3R,5S)-5-((1H-1,2,4-Triazol-1-yl)methyl)-1-cyanopyrrolidin-3-yl)-5-(3-cyanophenyl)oxazole-2-carboxamide]	16 nM	2 nM
N#Cc1ccc(OC2COC2)c(-c2cnc(C(=O)N(C3CC3)[C@@H]3C[C@@H](Cn4ccnn4)N(C#N)C3)o2)c1 [Example 16, N-((3R,5S)-5-((1H-1,2,3-Triazol-1-yl)methyl)-1-cyanopyrrolidin-3-yl)-5-(5-cyano-2-(oxetan-3-yloxy)phenyl)-N-cyclopropyloxazole-2-carboxamide]	950 nM	28 nM
N#CN1C[C@H](NC(=O)c2ncc(-c3cccc(C4CC4)c3)o2)C[C@H]1Cn1ccnn1 [Example 12, N-((3R,5S)-5-((1H-1,2,3-Triazol-1-yl)methyl)-1-cyanopyrrolidin-3-yl)-5-(3-cyclopropylphenyl)oxazole2-carboxamide]	25 nM	8 nM
N#CN1C[C@H](NC(=O)c2nnc(-c3cc(OC(F)(F)F)ccc3C3CC3)o2)C[C@H]1Cn1ccnn1 [Example 13, N-((3R,5S)-5-((1H-1,2,3-Triazol-1-yl)methyl)-1-cyanopyrrolidin-3-yl)-5-(2-cyclopropyl-5-(trifluoromethoxy)phenyl)-1,3,4-oxadiazole-2-carboxamide]	6 nM	5 nM
N#Cc1ccc(C2CC2)c(-c2nnc(C(=O)N[C@@H]3C[C@@H](Cn4cccn4)N(C#N)C3)o2)c1 [Example 46, N-((3R,5S)-5-((1H-Pyrazol-1-yl)methyl)-1-cyanopyrrolidin-3-yl)-5-(5-cyano-2-cyclopropylphenyl)-1,3,4-oxadiazole-2-carboxamide]	19 nM	9 nM
N#Cc1cccc(-c2cnc(C(=O)N[C@@H]3C[C@@H](Cn4ccnn4)N(C#N)C3)o2)c1 [Example 3, N-((3R,5S)-5-((1H-1,2,3-Triazol-1-yl)methyl)-1-cyanopyrrolidin-3-yl)-5-(3-cyanophenyl)oxazole-2-carboxamide]	8 nM	2 nM
N#CN1C[C@H](NC(=O)c2ncc(-c3ccccc3C3CC3)o2)C[C@H]1Cn1ccnn1 [Example 8, N-((3R,5S)-5-((1H-1,2,3-Triazol-1-yl)methyl)-1-cyanopyrrolidin-3-yl)-5-(2-cyclopropylphenyl)oxazole-2-carboxamide]	41 nM	14 nM
COc1ccccc1-c1cnc(C(=O)N[C@@H]2C[C@@H](Cn3ccnn3)N(C#N)C2)o1 [Example 6, N-((3R,5S)-5-((1H-1,2,3-Triazol-1-yl)methyl)-1-cyanopyrrolidin-3-yl)-5-(2-methoxyphenyl)oxazole-2-carboxamide]	180 nM	23 nM
N#Cc1cccc(-c2cnc(C(=O)N[C@@H]3C[C@@H](Cn4cccn4)N(C#N)C3)o2)c1 [Example 26, N-((3R,5S)-5-((1H-Pyrazol-1-yl)methyl)-1-cyanopyrrolidin-3-yl)-5-(3-cyanophenyl)oxazole-2-carboxamide]	14 nM	5 nM
N#Cc1ccc(C2CC2)c(-c2nnc(C(=O)N(C3CC3)[C@@H]3C[C@@H](Cn4ccnn4)N(C#N)C3)o2)c1 [Example 2, N-((3R,5S)-5-((1H-1,2,3-Triazol-1-yl)methyl)-1-cyanopyrrolidin-3-yl)-5-(5-cyano-2-cyclopropylphenyl)-N-cyclopropyl-1,3,4-oxadiazole-2-carboxamide]	15 nM	11 nM
N#Cc1cccc(-c2cnc(C(=O)N[C@@H]3C[C@@H](Cn4nccn4)N(C#N)C3)o2)c1 [Example 17, N-((3R,5S)-5-((2H-1,2,3-Triazol-2-yl)methyl)-1-cyanopyrrolidin-3-yl)-5-(3-cyanophenyl)oxazole-2-carboxamide]	16 nM	4 nM
N#CN1C[C@H](NC(=O)c2ccc(-c3cccc4[nH]ncc34)nc2)C[C@H]1Cn1cccn1 [Example 52, N-((3R,5S)-5-((1H-Pyrazol-1-yl)methyl)-1-cyanopyrrolidin-3-yl)-6-(1H-indazol-4-yl)nicotinamide]		15 nM
Cn1ncc2cc(-c3ccc(C(=O)N[C@@H]4C[C@@H](Cn5ccnn5)N(C#N)C4)c(F)c3)ccc21 [Example 35, N-((3R,5S)-5-((1H-1,2,3-Triazol-1-yl)methyl)-1-cyanopyrrolidin-3-yl)-2-fluoro-4-(1-methyl-1H-indazol-5-yl)benzamide]		27 nM
N#CN1C[C@H](NC(=O)c2nnc(-c3cc(OC(F)(F)F)ccc3C3CC3)o2)C[C@H]1Cn1cccn1 [Example 44, N-((3R,5S)-5-((1H-Pyrazol-1-yl)methyl)-1-cyanopyrrolidin-3-yl)-5-(2-cyclopropyl-5-(trifluoromethoxy)phenyl)-1,3,4-oxadiazole-2-carboxamide]		5 nM
Cc1ccnn1C[C@@H]1C[C@@H](NC(=O)c2ncc(-c3cccc(OC(F)(F)F)c3)o2)CN1C#N [Example 29, N-((3R,5S)-1-Cyano-5-((5-methyl-1H-pyrazol-1-yl)methyl)pyrrolidin-3-yl)-5-(3-(trifluoromethoxy)phenyl)oxazole-2-carboxamide]		55 nM
N#CN1C[C@H](NC(=O)N2CCC(c3cccc(OC(F)(F)F)c3)C2)C[C@H]1Cn1cccn1 (stereo partly drawn) [Example 38]		210 nM
N#CN1C[C@H](NC(=O)c2cc(-c3cccc(C(F)(F)F)c3)ccn2)C[C@H]1Cn1ccnn1 [Example 24, N-((3R,5S)-5-((1H-1,2,3-Triazol-1-yl)methyl)-1-cyanopyrrolidin-3-yl)-4-(3-(trifluoromethyl)phenyl)picolinamide]	620 nM	9 nM
N#Cc1ccc(C2CC2)c(-c2nnc(C(=O)N[C@@H]3C[C@@H](Cn4ccnn4)N(C#N)C3)o2)c1 [Example 14, N-((3R,5S)-5-((1H-1,2,3-Triazol-1-yl)methyl)-1-cyanopyrrolidin-3-yl)-5-(5-cyano-2-cyclopropylphenyl)-1,3,4-oxadiazole-2-carboxamide]		4 nM
